The source of these data is patent EP3383875B1, “3-PYRIMIDINYL PYRROLO [2,3-B] PYRIDINE AS ANTICANCER AGENTS AND THE PROCESS FOR THE PREPARATION THEREOF” (Council Of Scientific & Industrial Research, priority 2015, dated 2017).

One assay concerns MDA-MB435. Kind of assay: MTT assay on cancer cell line MDA-MB435. It is filed as cell-based, Human. To be noted: Homo sapiens, MDA-MB-435; MDA-MB435; at 10µM; Table 9 (for reference); read-out: In vitro cell inhibition, % of inhibition, MDA-MB435. As to the method: (§1) Cell culture, growth conditions and treatments. […] Different molecules were dissolved in DMSO and were delivered to cell cultures in complete medium.
In general terms: Tetrazolium dyes change colour on reduction, which living cells bring about.

In a further assay the test system is SHSY-5Y. Kind of assay: MTT assay on cancer cell line SHSY-5Y. It is filed as cell-based, human. The note with it: Homo sapiens, SH-SY5Y. How it is done: as §1
In the next assay the test system is PC-3. Kind of assay: MTT assay on cancer cell line PC-3. It is filed as cell-based, human. The note with it: Homo sapiens, Table 9 (for reference), read-out: In vitro cell inhibition, % of inhibition, PC-3. How it is done: as §1
Another assay has as its system MCF-7. Kind of assay: MTT assay on cancer cell line MCF-7. It is filed as cell-based, Human. The note with it: Homo sapiens. As to the method:
as §1

A further assay relates to HCT-116. Kind of assay: MTT assay on cancer cell line HCT-116. It is filed as cell-based, human. To be noted: Homo sapiens, at 10µM, Table 9 (for reference), read-out: In vitro cell inhibition, % of inhibition, HCT-116. As to the method:
as §1

Another assay concerns the target CDK-2/cyclin A (Homo sapiens, UniProt P24941). Kind of assay: CDK inhibition assay, CDK-2/cyclin A against Histone HI, 33P-ATP. It is filed as biochemical. The note with it: at 500 nM. How it is done: Compounds were evaluated for their ability to inhibit CDK2 and CDK9 as given below.
CDK-2/cyclin A (5-20 mU diluted in 50 mM Hepes pH 7.5, 1 mM DTT, 0.02% Brij35, 100 mM NaCl) was assayed against Histone HI in a final volume of 25.5 µl containing 50 mM Hepes pH7.5, 1 mM DTT, 0.02% Brij35, 100 mM NaCl, Histone HI (1 mg/ml), 10 mM magnesium acetate and 0.02 mM [33P-g-ATP](500-1000 cpm/pmole) and incubated for 30 min at room temperature. Assays were stopped by addition of 5 µl of 0.5 M (3%) orthophosphoric acid and then harvested onto P81 Unifilter plates with a wash buffer of 50 mM orthophosphoric acid.

The target of the next assay is CDK-9/Cyclin T1 (Homo sapiens, UniProt P50750). In words: CDK inhibition assay, CDK-9/Cyclin T1 against substrate peptide, 33P-ATP. The class given is biochemical. How it is done: (50-1000 cpm/pmole) and incubated for 30 min at room temperature. Assays were stopped by addition of 5 µl of 0.5 M (3%) orthophosphoric acid and then harvested onto P81 Unifilter plates with a wash buffer of 50 mM orthophosphoric acid.
Chain of CDK-9/Cyclin T1 (P50750 whole entry): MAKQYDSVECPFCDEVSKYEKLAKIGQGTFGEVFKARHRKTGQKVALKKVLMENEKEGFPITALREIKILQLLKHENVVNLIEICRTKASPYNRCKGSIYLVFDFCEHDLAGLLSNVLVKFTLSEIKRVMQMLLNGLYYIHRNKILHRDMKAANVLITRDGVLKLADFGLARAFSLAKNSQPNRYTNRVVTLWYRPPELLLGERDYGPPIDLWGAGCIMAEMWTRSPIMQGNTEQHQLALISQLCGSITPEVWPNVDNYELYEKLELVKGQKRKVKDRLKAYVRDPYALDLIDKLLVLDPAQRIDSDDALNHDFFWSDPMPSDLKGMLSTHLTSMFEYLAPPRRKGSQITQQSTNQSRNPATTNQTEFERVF
Chain of CDK-9/Cyclin T1 (O60563 whole entry partner): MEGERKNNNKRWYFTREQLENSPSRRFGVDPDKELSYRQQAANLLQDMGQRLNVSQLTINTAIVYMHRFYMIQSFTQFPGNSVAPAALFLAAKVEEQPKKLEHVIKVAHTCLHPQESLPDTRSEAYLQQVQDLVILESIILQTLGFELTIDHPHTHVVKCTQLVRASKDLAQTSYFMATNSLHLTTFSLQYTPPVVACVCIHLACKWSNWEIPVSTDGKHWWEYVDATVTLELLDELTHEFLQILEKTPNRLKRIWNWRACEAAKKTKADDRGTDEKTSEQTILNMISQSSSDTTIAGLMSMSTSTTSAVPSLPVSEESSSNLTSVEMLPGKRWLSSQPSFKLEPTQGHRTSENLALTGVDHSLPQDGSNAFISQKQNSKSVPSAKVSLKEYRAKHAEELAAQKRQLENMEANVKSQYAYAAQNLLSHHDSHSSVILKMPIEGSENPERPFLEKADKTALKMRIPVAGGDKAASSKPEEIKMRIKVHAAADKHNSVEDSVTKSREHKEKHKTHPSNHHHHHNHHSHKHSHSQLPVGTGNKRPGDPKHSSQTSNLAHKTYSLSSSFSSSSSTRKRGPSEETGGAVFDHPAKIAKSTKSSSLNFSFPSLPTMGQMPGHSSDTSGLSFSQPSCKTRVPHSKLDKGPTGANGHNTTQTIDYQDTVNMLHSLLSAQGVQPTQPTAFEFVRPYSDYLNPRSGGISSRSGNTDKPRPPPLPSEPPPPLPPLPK

Where [1] appears, read: SHSY-5Y, Table 9 (for reference), read-out: In vitro cell inhibition, % of inhibition, SHSY-5Y.
[2] abbreviates: MCF7, MCF-7, Table 9 (for reference), read-out: In vitro cell inhibition, % of inhibition, MCF-7.
The mark [3] stands for this setting: MCF7, read-out: inhibition against MCF-7 cell lines.
The mark [4] stands for this setting: read-out: inhibition against SHSY-5Y cell lines.
[5] abbreviates: Table-7, read-out: In vitro CDK2 % of inhibition.
The mark [6] stands for this setting: read-out: inhibition against CDK2.
[7] abbreviates: at 500 nM, Table-7, read-out: In vitro CDK9 % of inhibition.
Setting [8] is: at 500 nM, read-out: inhibition against CDK9.
Where [9] appears, read: Table-6, read-out: In vitro CDK2 % of inhibition.
[10] abbreviates: at 500 nM, Table-6, read-out: In vitro CDK9 % of inhibition.

Like-named read-outs stand apart in the source and are kept apart here.

Turning to `CSc1ccc(-c2cnc3[nH]cc(-c4ccnc(N)n4)c3c2)cc1` [1C8, 4-(5-(4-(methylthio)phenyl)-1H-pyrrolo[2,3-b]pyridin-3-yl)pyrimidin-2-amine], the inhibition at 10 µM with MDA-MB435 is over 70%; in the assay with SHSY-5Y (setting [1]), over 50%; in the assay on PC-3, under 50%; in the assay on MCF-7 (setting [2]) it was over 50%; in the assay with MCF-7 (setting [3]), over 50%; with HCT-116, over 70%.

Turning to `Nc1nccc(-c2c[nH]c3ncc(-c4ccc(OC(F)(F)F)cc4)cc23)n1` [1C3, 4-(5-(4-(trifluoromethoxy)phenyl)-1H-pyrrolo[2,3-b]pyridin-3-yl)pyrimidin-2-amine], the inhibition at 10 µM with MDA-MB435 is over 70%; with SHSY-5Y (setting [1]), over 70%; in the assay on SHSY-5Y (setting [4]), over 70%; in the assay on PC-3, over 50%; in the assay on MCF-7 (setting [2]), over 70%; with MCF-7 (setting [3]), over 70%. Moreover, in the assay with HCT-116, the inhibition at 10 µM was over 70%.

On to `Nc1nccc(-c2c[nH]c3ncc(-c4ccc(Cl)cc4)cc23)n1` [1C12, 4-(5-(4-chlorophenyl)-1H-pyrrolo[2,3-b]pyridin-3-yl)pyrimidin-2-amine], for which the inhibition at 10 µM with MDA-MB435, in the assay with SHSY-5Y (setting [1]), in the assay with SHSY-5Y (setting [4]), with PC-3, in the assay with MCF-7 (setting [2]) and in the assay with MCF-7 (setting [3]) was over 70% throughout. Also, in the assay on HCT-116, the inhibition at 10 µM is over 70%.

With `COc1ccc2[nH]c(-c3cnc4[nH]cc(-c5ccnc(N)n5)c4c3)cc2c1` [1C17, 4-(5-(5-methoxy-1H-indol-2-yl)-1H-pyrrolo[2,3-b]pyridin-3-yl)pyrimidin-2-amine], the inhibition at 10 µM with MDA-MB435 is over 70%; in the assay with SHSY-5Y (setting [1]), under 50%; in the assay on PC-3 it was over 50%; in the assay with MCF-7 (setting [2]) it was over 70%; with MCF-7 (setting [3]), over 70%; in the assay with HCT-116, over 70%.

Take `O=Cc1ccc(-c2cnc3[nH]cc(-c4ccnc(NC5CCCCCC5)n4)c3c2)cc1` [1A53, 4-(3-(2-(cycloheptylamino)pyrimidin-4-yl)-1H-pyrrolo[2,3-b]pyridin-5-yl)benzaldehyde]: the inhibition at 0.5 µM on CDK-2/cyclin A (setting [5]), on CDK-2/cyclin A (setting [6]), on CDK-9/Cyclin T1 (setting [7]) and at CDK-9/Cyclin T1 (setting [8]) was over 70% throughout.

On to `Cc1ccc(-c2cnc3[nH]cc(-c4ccnc(NC5CC5)n4)c3c2)cc1` [1A6, N-cyclopropyl-4-(5-(p-tolyl)-1H-pyrrolo[2,3-b]pyridin-3-yl)pyrimidin-2-amine], for which the inhibition at 0.5 µM on CDK-2/cyclin A (setting [9]), at CDK-2/cyclin A (setting [6]), on CDK-9/Cyclin T1 (setting [10]) and on CDK-9/Cyclin T1 (setting [8]) was over 70% each time.

Consider `c1ccc2[nH]c(-c3cnc4[nH]cc(-c5ccnc(NC6CCCCCC6)n5)c4c3)cc2c1` [1A59, 4-(5-(1H-indol-2-yl)-1H-pyrrolo[2,3-b]pyridin-3-yl)-N-cycloheptylpyrimidin-2-amine], for which the inhibition at 0.5 µM on CDK-2/cyclin A (setting [5]), at CDK-2/cyclin A (setting [6]), at CDK-9/Cyclin T1 (setting [7]) and on CDK-9/Cyclin T1 (setting [8]) was over 70% throughout.

With `CSc1ccccc1-c1cnc2[nH]cc(-c3ccnc(NCCc4ccccc4)n3)c2c1` [1B9, 4-(5-(2-(methylthio)phenyl)-1H-pyrrolo[2,3-b]pyridin-3-yl)-N-phenethylpyrimidin-2-amine], the inhibition at 0.5 µM at CDK-2/cyclin A (setting [5]), on CDK-2/cyclin A (setting [6]), at CDK-9/Cyclin T1 (setting [7]) and at CDK-9/Cyclin T1 (setting [8]) was over 50% in each case.

Regarding `CSc1ccc(-c2cnc3[nH]cc(-c4ccnc(NC5CCCCCC5)n4)c3c2)cc1` [1A48, N-cycloheptyl-4-(5-(4-(methylthio)phenyl)-1H-pyrrolo[2,3-b]pyridin-3-yl)pyrimidin-2-amine], the inhibition at 0.5 µM on CDK-2/cyclin A (setting [9]), on CDK-2/cyclin A (setting [6]), on CDK-9/Cyclin T1 (setting [10]) and at CDK-9/Cyclin T1 (setting [8]) was over 50% each time.

As for `CC(=O)c1ccc(-c2cnc3[nH]cc(-c4ccnc(NCCc5ccccc5)n4)c3c2)cc1` [1B13, 1-(4-(3-(2-(phenethylamino)pyrimidin-4-yl)-1H-pyrrolo[2,3-b]pyridin-5-yl)phenyl)ethan-1-one], the inhibition at 0.5 µM on CDK-2/cyclin A (setting [5]), on CDK-2/cyclin A (setting [6]), at CDK-9/Cyclin T1 (setting [7]) and on CDK-9/Cyclin T1 (setting [8]) was over 50% in each case.

With `Clc1ccc(-c2cnc3[nH]cc(-c4ccnc(NC5CCCC5)n4)c3c2)cc1` [1A32, 4-(5-(4-chlorophenyl)-1H-pyrrolo [2,3-b]pyridin-3-yl)-N-cyclopentylpyrimidin-2-amine], the inhibition at 0.5 µM on CDK-2/cyclin A (setting [9]), at CDK-2/cyclin A (setting [6]), at CDK-9/Cyclin T1 (setting [10]) and at CDK-9/Cyclin T1 (setting [8]) was over 50% throughout.

With `Clc1ccc(-c2cnc3[nH]cc(-c4ccnc(NC5CCCCCC5)n4)c3c2)cc1` [1A52, 4-(5-(4-chlorophenyl)-1H-pyrrolo[2,3-b]pyridin-3-yl)-N-cycloheptylpyrimidin-2-amine], the inhibition at 0.5 µM on CDK-2/cyclin A (setting [5]), on CDK-2/cyclin A (setting [6]), at CDK-9/Cyclin T1 (setting [7]) and at CDK-9/Cyclin T1 (setting [8]) was over 70% throughout.

In the case of `Cc1ccc(-c2cnc3[nH]cc(-c4ccnc(NC5CCCC5)n4)c3c2)cc1` [1A26, N-cyclopentyl-4-(5-(p-tolyl)-1H-pyrrolo[2,3-b]pyridin-3-yl)pyrimidin-2-amine], the inhibition at 0.5 µM at CDK-2/cyclin A (setting [9]), at CDK-2/cyclin A (setting [6]), on CDK-9/Cyclin T1 (setting [10]) and at CDK-9/Cyclin T1 (setting [8]) was over 50% in each case.

On to `Fc1cccc(-c2cnc3[nH]cc(-c4ccnc(NC5CCCCCC5)n4)c3c2)c1` [1A45, N-cycloheptyl-4-(5-(3-fluorophenyl)-1H-pyrrolo[2,3-b]pyridin-3-yl)pyrimidin-2-amine], for which the inhibition at 0.5 µM on CDK-2/cyclin A (setting [9]) and at CDK-9/Cyclin T1 (setting [10]) was over 70% throughout.

As for `COc1ccc2[nH]c(-c3cnc4[nH]cc(-c5ccnc(NC6CC6)n5)c4c3)cc2c1` [1A17, N-cyclopropyl-4-(5-(5-methoxy-1H-indol-2-yl)-1H-pyrrolo[2,3-b]pyridin-3-yl)pyrimidin-2-amine], the inhibition at 0.5 µM on CDK-2/cyclin A (setting [9]), on CDK-2/cyclin A (setting [6]), at CDK-9/Cyclin T1 (setting [10]) and on CDK-9/Cyclin T1 (setting [8]) was over 50% each time.

For the compound `CN1CC[C@H](c2c(O)cc(O)c3c(=O)cc(-c4ccccc4Cl)oc23)[C@H](O)C1` [Flavopyr idol, flavopiridol, reference compound], the inhibition at 0.5 µM is over 70% on CDK-2/cyclin A (setting [9]) and over 70% on CDK-9/Cyclin T1 (read-out: In vitro CDK9 % of inhibition, at 500 nM, Table-6).

Turning to `CSc1ccc(-c2cnc3[nH]cc(-c4ccnc(NC5CCCC5)n4)c3c2)cc1` [1A28, N-cyclopentyl-4-(5-(4-(methylthio)phenyl)-1H-pyrrolo[2,3-b]pyridin-3-yl)pyrimidin-2-amine], the inhibition at 0.5 µM on CDK-2/cyclin A (setting [9]), on CDK-2/cyclin A (setting [6]), at CDK-9/Cyclin T1 (setting [10]) and on CDK-9/Cyclin T1 (setting [8]) was over 50% in each case.

Regarding `FC(F)(F)Oc1ccc(-c2cnc3[nH]cc(-c4ccnc(NC5CC5)n4)c3c2)cc1` [1A3, N-cyclopropyl-4-(5-(4-(trifluoromethoxy)phenyl)-1H-pyrrolo[2,3-b]pyridin-3-yl)pyrimidin-2-amine], the inhibition at 0.5 µM at CDK-2/cyclin A (setting [9]), at CDK-2/cyclin A (setting [6]), on CDK-9/Cyclin T1 (setting [10]) and on CDK-9/Cyclin T1 (setting [8]) was over 70% throughout.

Usually inhibition stands for the relative decrease from the control value, in per cent.
